The values that follow come from US20200291018A1, “TAM KINASE INHIBITORS” (SYROS PHARMACEUTICALS, INC., priority 2017, published 2020).

One assay addresses T1, TYRO3 (Homo sapiens, UniProt Q06418).
T1 sequence (Q06418 41-890): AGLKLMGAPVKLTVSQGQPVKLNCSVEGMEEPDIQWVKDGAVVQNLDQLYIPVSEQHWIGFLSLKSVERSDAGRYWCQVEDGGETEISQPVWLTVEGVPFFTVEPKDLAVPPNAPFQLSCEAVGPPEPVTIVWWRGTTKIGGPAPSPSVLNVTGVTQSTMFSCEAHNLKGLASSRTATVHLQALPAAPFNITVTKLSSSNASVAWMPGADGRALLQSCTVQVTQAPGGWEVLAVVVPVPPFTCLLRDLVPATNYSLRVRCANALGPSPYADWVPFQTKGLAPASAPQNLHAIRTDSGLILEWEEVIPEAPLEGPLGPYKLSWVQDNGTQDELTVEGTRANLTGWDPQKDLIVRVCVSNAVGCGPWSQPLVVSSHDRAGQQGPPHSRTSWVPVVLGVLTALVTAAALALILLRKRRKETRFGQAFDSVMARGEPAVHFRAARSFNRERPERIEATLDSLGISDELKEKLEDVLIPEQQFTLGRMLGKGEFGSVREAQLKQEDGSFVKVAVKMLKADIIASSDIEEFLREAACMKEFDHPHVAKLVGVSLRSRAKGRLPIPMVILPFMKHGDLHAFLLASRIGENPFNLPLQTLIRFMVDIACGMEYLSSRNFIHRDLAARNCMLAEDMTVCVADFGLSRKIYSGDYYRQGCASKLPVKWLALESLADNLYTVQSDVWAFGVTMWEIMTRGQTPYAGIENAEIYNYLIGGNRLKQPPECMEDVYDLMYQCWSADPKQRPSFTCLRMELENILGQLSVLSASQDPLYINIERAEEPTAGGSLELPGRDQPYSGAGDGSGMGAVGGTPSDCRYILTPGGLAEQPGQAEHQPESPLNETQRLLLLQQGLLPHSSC
The assay can be described thus: TR-FRET kinase activity assay, TYRO3. In kind it is biochemical. Particulars: ATP at Km, 60 minutes. The gist of the method: (§1)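 Buffer 50 mM HEPES pH 7.5/10 mM MgCl2/1 mM EGTA/0.01% Brij 35/1 mM DTT, RT. Km ATP per kinase, labeled peptide, 60 min; 12.5 mM EDTA stop; Eu-Ab 30 min dark; TR-FRET → IC50.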
For orientation: In TR-FRET formats the signal depends on donor and acceptor labels being close together.

The target of the next assay is T2, MERTK (Homo sapiens, UniProt Q12866).
T2 sequence (Q12866 21-999): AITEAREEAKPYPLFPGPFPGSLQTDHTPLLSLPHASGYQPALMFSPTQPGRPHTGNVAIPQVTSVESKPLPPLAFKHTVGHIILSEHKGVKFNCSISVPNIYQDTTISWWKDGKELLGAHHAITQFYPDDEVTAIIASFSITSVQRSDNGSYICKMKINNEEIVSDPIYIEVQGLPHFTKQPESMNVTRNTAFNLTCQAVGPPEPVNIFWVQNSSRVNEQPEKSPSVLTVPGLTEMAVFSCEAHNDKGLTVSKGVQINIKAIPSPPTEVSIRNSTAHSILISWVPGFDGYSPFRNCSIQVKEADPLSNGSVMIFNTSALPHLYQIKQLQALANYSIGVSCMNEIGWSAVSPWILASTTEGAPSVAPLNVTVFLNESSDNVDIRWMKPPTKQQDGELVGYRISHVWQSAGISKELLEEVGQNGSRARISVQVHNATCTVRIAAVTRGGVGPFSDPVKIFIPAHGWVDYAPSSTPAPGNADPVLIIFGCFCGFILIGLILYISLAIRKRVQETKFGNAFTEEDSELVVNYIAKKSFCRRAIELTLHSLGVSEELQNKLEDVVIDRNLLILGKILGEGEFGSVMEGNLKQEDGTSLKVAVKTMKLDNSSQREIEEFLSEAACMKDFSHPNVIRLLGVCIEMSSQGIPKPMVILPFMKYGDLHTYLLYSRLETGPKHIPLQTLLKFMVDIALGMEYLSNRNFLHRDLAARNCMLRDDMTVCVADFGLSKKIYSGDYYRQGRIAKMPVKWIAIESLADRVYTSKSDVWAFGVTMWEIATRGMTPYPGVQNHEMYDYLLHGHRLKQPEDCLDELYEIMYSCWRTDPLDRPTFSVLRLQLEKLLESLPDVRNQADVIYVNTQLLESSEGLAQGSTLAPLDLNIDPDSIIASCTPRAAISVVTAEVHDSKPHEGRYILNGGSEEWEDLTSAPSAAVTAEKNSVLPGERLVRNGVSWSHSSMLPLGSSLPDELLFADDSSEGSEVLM
The assay can be described thus: TR-FRET kinase activity assay, MERTK. In kind it is biochemical. Conditions: for IC50: TR-FRET activity assay, ATP at Km, 60 minutes, read-out: Mer IC50; for Mer/Flt3 ratio (FLT3 IC50/Mer IC50): ratio calculated as FLT3 IC50/Mer IC50. The method, boiled down: as §1

SMILES strings stand for the structures.

What is called IC50 is the concentration at which inhibition is half-maximal. Take `O[C@H]1CC[C@H](c2cnc(OC3CCNCC3)c3cnc(Nc4ccc(F)cc4)nc32)CC1` [Compound 269]: the 50% inhibitory concentration (IC50) against TYRO3 and on MERTK was ≤ 100 nM in each case. In addition, the “Mer/Flt3 ratio (FLT3 IC50/Mer IC50)” value at MERTK is “+ (a ratio of >2.0 and <10)”.

Consider `O[C@H]1CC[C@H](c2cnc(OC3CCNCC3)c3cnc(Nc4cccc(F)c4)nc32)CC1` [Compound 270], for which the IC50 against TYRO3 was ≤ 100 nM. On MERTK, the 50% inhibitory concentration (IC50) is ≤ 100 nM; the “Mer/Flt3 ratio (FLT3 IC50/Mer IC50)” value was “+ (a ratio of >2.0 and <10)”.

In the case of `CC[C@H](C)Nc1ncc2c(=O)n(-c3ccc(N)cc3)cc([C@H]3CC[C@H](O)CC3)c2n1` [Compound 271], at TYRO3, the IC50 fell in the range of 100 to 1000 nM. Moreover, at MERTK, the IC50 is ≤ 100 nM and the “Mer/Flt3 ratio (FLT3 IC50/Mer IC50)” value is “+++ (a ratio of >100)”.

For `COC(=O)c1ccc(Nc2ncc3c(OC4CCNCC4)ncc([C@H]4CC[C@H](O)CC4)c3n2)cc1` [Compound 272], the IC50 against TYRO3 and at MERTK was ≤ 100 nM in each case. Further, the “Mer/Flt3 ratio (FLT3 IC50/Mer IC50)” value on MERTK is “+ (a ratio of >2.0 and <10)”.

With `CCOc1ncc([C@H]2CC[C@H](O)CC2)c2nc(N[C@@H](C)COC)ncc12` [Compound 273], on TYRO3, the IC50 fell in the range of 100 to 1000 nM. At MERTK, the IC50 was ≤ 100 nM and the “Mer/Flt3 ratio (FLT3 IC50/Mer IC50)” value is given as “+++ (a ratio of >100)”.

With `CC(C)Nc1ncc2c(OC3CCOCC3)ncc(-c3cccc(CC#N)c3)c2n1` [Compound 274], the half-maximal inhibitory concentration (IC50) against TYRO3 is 100 to 1000 nM. Also, on MERTK, the 50% inhibitory concentration (IC50) was ≤ 100 nM; the “Mer/Flt3 ratio (FLT3 IC50/Mer IC50)” value is “++ (a ratio of between 10 and 100)”.

`CC[C@H](C)Nc1ncc2c(OC3C[C@@H](C)O[C@@H](C)C3)ncc([C@H]3CC[C@H](O)CC3)c2n1` (stereo partly drawn) [Compound 275]: at TYRO3, the IC50 fell in the range of 100 to 1000 nM. On MERTK, the half-maximal inhibitory concentration (IC50) is ≤ 100 nM and the “Mer/Flt3 ratio (FLT3 IC50/Mer IC50)” value is “+++ (a ratio of >100)”.

On to `CC(C)Nc1ncc2c(OC3CCOCC3)ncc(-c3cccc(CC(=O)O)c3)c2n1` [Compound 276], for which the IC50 at TYRO3 lay in the range of 100 to 1000 nM. Besides, at MERTK, the 50% inhibitory concentration (IC50) was 1000 to 10000 nM; the “Mer/Flt3 ratio (FLT3 IC50/Mer IC50)” value is “++ (a ratio of between 10 and 100)”.

Turning to `O[C@H]1CC[C@H](c2cnc(OC3CCOCC3)c3cnc(N[C@H]4CCNC4)nc32)CC1` [Compound 277], the half-maximal inhibitory concentration (IC50) against TYRO3 and at MERTK was 1000 to 10000 nM in each case. In addition, the “Mer/Flt3 ratio (FLT3 IC50/Mer IC50)” value at MERTK is listed as “NS (a ratio of ≤2.0)”.
